Structures can show the parent of a compound that is named as a salt.
Legend:
[1] = molecular target: T1, JH2 domain of human Tyk2 (Homo sapiens, UniProt P29597); test: JH2 biochemical assay (TR-FRET probe displacement); format: binding
T1 construct: 10×His-tagged TYK2 JH2 domain (amino acid 575-876)
Procedure, shortened: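 10×His-tagged human TYK2 JH2 (aa 575-876, 2 nM) incubated 60 min with 2 nM fluorescent probe, 0.1 nM Tb anti-His antibody and compound (10-point 3-fold series from […] top). TR-FRET 520/495 nm ratio, falling with probe displacement, normalized and fitted to a 4-parameter logistic for IC50.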

[2] = test system: Tyk2 kinase activity on STAT4; test: pSTAT4 cell assay (MSD, NK92 cells); format: cell-based; settings: compounds 1 hr
Procedure, shortened: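 NK92, serum-starved; cpd 1 hr, 10-pt 4-fold from 10 μM; IL2 30 ng/mL 15 min; lyse; MSD with anti-STAT4 Abs; IC50 by 4-PL fit.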

[3] = TR-FRET probe displacement, JH2 domain of human Tyk2

T1 sequence (P29597 575-876): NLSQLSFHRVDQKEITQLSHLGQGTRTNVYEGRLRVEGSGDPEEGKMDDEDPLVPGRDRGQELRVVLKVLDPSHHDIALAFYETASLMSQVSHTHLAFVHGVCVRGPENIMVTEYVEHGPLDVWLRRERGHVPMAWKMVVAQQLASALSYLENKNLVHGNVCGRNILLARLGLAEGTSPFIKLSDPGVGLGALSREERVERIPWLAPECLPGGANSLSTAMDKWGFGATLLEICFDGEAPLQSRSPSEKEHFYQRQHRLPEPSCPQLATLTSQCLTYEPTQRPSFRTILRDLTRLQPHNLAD

Structure (SMILES)	IC50 [1, 3]	IC50 ([2]; then stimulated 15 minutes)	IC50 ([1]; JH2 biochemical assay)	IC50 ([2]; stimulated 15 minutes)
CC(=O)Nc1cc2c(cn1)C1(CC1)CN2c1cc(C(C)(C)F)nc(C(C)(F)F)n1 [Example 398, N-(1′-(2-(1,1-difluoroethyl)-6-(2-fluoropropan-2-yl)pyrimidin-4-yl)-1′,2′-dihydrospiro[cyclopropane-1,3′-pyrrolo[3,2-c]pyridin]-6′-yl)acetamide]	≤ 10 nM	10 to 100 nM		
CC(=O)Nc1cc2c(cn1)C1(CC1)CN2c1cc(C)nc(N2CCC(F)(F)C2)n1 [Example 229, N-(1′-(2-(3,3-difluoropyrrolidin-1-yl)-6-methylpyrimidin-4-yl)-1′,2′-dihydrospiro[cyclopropane-1,3′-pyrrolo[3,2-c]pyridin]-6′-yl)acetamide]			≤ 10 nM	100 to 1000 nM
CC(=O)Nc1cc2c(cn1)C1(CC1)CN2c1cc(C)cc(N2CC(C)(C#N)C2)n1 [Example 200, N-(1′-(6-(3-cyano-3-methylazetidin-1-yl)-4-methylpyridin-2-yl)-1′,2′-dihydrospiro[cyclopropane-1,3′-pyrrolo[3,2-c]pyridin]-6′-yl)acetamide]			10 to 100 nM	100 to 1000 nM
COCCC(=O)Nc1cc2c(cn1)C1(CC1)CN2c1ccnc(C(C)(F)F)n1 [Example 91, N-(1′-(2-(1,1-difluoroethyl)pyrimidin-4-yl)-1′,2′-dihydrospiro[cyclopropane-1,3′-pyrrolo[3,2-c]pyridin]-6′-yl)-3-methoxypropanamide]			10 to 100 nM	≥ 1000 nM
CC(=O)Nc1cc2c(cn1)C1(CC1)CN2c1cc(C2CCC2)nc(C(C)(F)F)n1 [Example 24, N-(1′-(6-cyclobutyl-2-(1,1-difluoroethyl)pyrimidin-4-yl)-1′,2′-dihydrospiro[cyclopropane-1,3'-pyrrolo[3,2-c]pyridin]-6'-yl)acetamide]			≤ 10 nM	10 to 100 nM
CCOCc1nc(C)cc(N2CC3(CC3)c3cnc(NC(C)=O)cc32)n1 [Example 59, N-(1′-(2-(ethoxymethyl)-6-methylpyrimidin-4-yl)-1′,2′-dihydrospiro[cyclopropane-1,3′-pyrrolo[3,2-c]pyridin]-6′-yl)acetamide]			100 to 1000 nM	≥ 1000 nM
CC(=O)Nc1cc2c(cn1)C1(CC1)CN2c1cc(C)cc(N2CCN(CCO)CC2)n1 [Example 406, N-(1′-(6-(4-(2-hydroxyethyl)piperazin-1-yl)-4-methylpyridin-2-yl)-1′,2′-dihydrospiro[cyclopropane-1,3′-pyrrolo[3,2-c]pyridin]-6′-yl)acetamide]	100 to 1000 nM	≥ 1000 nM		
CC(=O)Nc1cc2c(cn1)C1(CC1)CN2c1cc(NC2CCOC2)nc(C(C)(F)F)n1 (centres unmarked) [Example 179, N-(1′-(2-(1,1-difluoroethyl)-6-((tetrahydrofuran-3-yl)amino)pyrimidin-4-yl)-1′,2′-dihydrospiro[cyclopropane-1,3′-pyrrolo[3,2-c]pyridin]-6′-yl)acetamide trifluoroacetate]			≤ 10 nM	10 to 100 nM
CC(=O)Nc1cc2c(cn1)C1(CC1)CN2c1cc(C)nc(C2COC2)n1 [Example 396, N-(1′-(6-methyl-2-(oxetan-3-yl)pyrimidin-4-yl)-1′,2′-dihydrospiro[cyclopropane-1,3′-pyrrolo[3,2-c]pyridin]-6′-yl)acetamide]	10 to 100 nM	≥ 1000 nM		
COC(C)(C)CNc1cc(N2CC3(CC3)c3cnc(NC(C)=O)cc32)nc(C(C)(F)F)n1 [Example 158, N-(1′-(2-(1,1-difluoroethyl)-6-((2-methoxy-2-methylpropyl)amino)pyrimidin-4-yl)-1′,2′-dihydrospiro[cyclopropane-1,3′-pyrrolo[3,2-c]pyridin]-6′-yl)acetamide trifluoroacetate]			≤ 10 nM	≤ 10 nM
COCCC1(C#N)CN(c2nc(C)cc(N3CC4(CC4)c4cnc(NC(C)=O)cc43)n2)C1 [Example 220, N-(1′-(2-(3-cyano-3-(2-methoxyethyl)azetidin-1-yl)-6-methylpyrimidin-4-yl)-1′,2′-dihydrospiro[cyclopropane-1,3′-pyrrolo[3,2-c]pyridin]-6′-yl)acetamide]			10 to 100 nM	≥ 1000 nM
COCC1CC(Oc2cc(C)cc(N3CC4(CC4)c4cnc(NC(C)=O)cc43)n2)C1 (centres unmarked) [Example 345, N-(1′-(6-(3-(methoxymethyl)cyclobutoxy)-4-methylpyridin-2-yl)-1′,2′-dihydrospiro[cyclopropane-1,3′-pyrrolo[3,2-c]pyridin]-6′-yl)acetamide trifluoroacetate]			100 to 1000 nM	≥ 1000 nM
CC(=O)Nc1cc2c(cn1)C1(CC1)CN2c1cc(C)cc(N2CC(S(C)(=O)=O)C2)n1 [Example 203, N-(1′-(4-methyl-6-(3-(methylsulfonyl)azetidin-1-yl)pyridin-2-yl)-1′,2′-dihydrospiro[cyclopropane-1,3′-pyrrolo[3,2-c]pyridin]-6′-yl)acetamide]			100 to 1000 nM	≥ 1000 nM
CC(=O)Nc1cc2c(cn1)C1(CC1)CN2c1cc(C)nc(CCS(C)(=O)=O)n1 [Example 319, N-(1′-(6-methyl-2-(2-(methylsulfonyl)ethyl)pyrimidin-4-yl)-1′,2′-dihydrospiro[cyclopropane-1,3′-pyrrolo[3,2-c]pyridin]-6′-yl)acetamide]			10 to 100 nM	≥ 1000 nM
CC(=O)Nc1cc2c(cn1)C1(CC1)CN2c1cc(C)cc(N2CCN(C)CC2)n1 [Example 207, N-(1′-(4-methyl-6-(4-methylpiperazin-1-yl)pyridin-2-yl)-1′,2′-dihydrospiro[cyclopropane-1,3′-pyrrolo[3,2-c]pyridin]-6′-yl)acetamide]			100 to 1000 nM	≥ 1000 nM
CC(=O)Nc1cc2c(cn1)C1(CC1)CN2c1cc(OC(C)C#N)nc(C(C)(F)F)n1 (centres unmarked) [Example 151, N-(1′-(6-(1-cyanoethoxy)-2-(1,1-difluoroethyl)pyrimidin-4-yl)-1′,2′-dihydrospiro[cyclopropane-1,3′-pyrrolo[3,2-c]pyridin]-6′-yl)acetamide trifluoroacetate]			10 to 100 nM	≥ 1000 nM
CC(=O)Nc1cc2c(cn1)C1(CC1)CN2c1cc(C)nc(-c2cnn(CC3CC3)c2)n1 [Example 253, N-(1′-(2-(1-(cyclopropylmethyl)-1H-pyrazol-4-yl)-6-methylpyrimidin-4-yl)-1′,2′-dihydrospiro[cyclopropane-1,3′-pyrrolo[3,2-c]pyridin]-6′-yl)acetamide trifluoroacetate]			10 to 100 nM	≥ 1000 nM
CC(=O)Nc1cc2c(cn1)C1(CC1)CN2c1cc(C)cc(-c2cnn(C)c2)n1 [Example 257, N-(1′-(4-methyl-6-(1-methyl-1H-pyrazol-4-yl)pyridin-2-yl)-1′,2′-dihydrospiro[cyclopropane-1,3′-pyrrolo[3,2-c]pyridin]-6′-yl)acetamide trifluoroacetate]			≤ 10 nM	100 to 1000 nM
CC(=O)Nc1cc2c(cn1)C1(CC1)CN2c1cc(CC#N)nc(C(C)(F)F)n1 [Example 303, N-(1′-(6-(cyanomethyl)-2-(1,1-difluoroethyl)pyrimidin-4-yl)-1′,2′-dihydrospiro[cyclopropane-1,3′-pyrrolo[3,2-c]pyridin]-6′-yl)acetamide]			10 to 100 nM	≥ 1000 nM
CC(=O)Nc1cc2c(cn1)C1(CC1)CN2c1cc(C)nc(N2CC(CC(C)C)C2)n1 [Example 410, N-(1′-(2-(3-isobutylazetidin-1-yl)-6-methylpyrimidin-4-yl)-1′,2′-dihydrospiro[cyclopropane-1,3′-pyrrolo[3,2-c]pyridin]-6′-yl)acetamide trifluoroacetate]	≥ 1000 nM	100 to 1000 nM		
CC(=O)Nc1cc2c(cn1)C1(CC1)CN2c1cc(C)nc(N2CC(C#N)(C(F)F)C2)n1 [Example 223, N-(1′-(2-(3-cyano-3-(difluoromethyl)azetidin-1-yl)-6-methylpyrimidin-4-yl)-1′,2′-dihydrospiro[cyclopropane-1,3′-pyrrolo[3,2-c]pyridin]-6′-yl)acetamide trifluoroacetate]			10 to 100 nM	≥ 1000 nM
COC1(CNc2cc(N3CC4(CC4)c4cnc(NC(C)=O)cc43)nc(C(C)(F)F)n2)CC1 [Example 161, N-(1′-(2-(1,1-difluoroethyl)-6-(((1-methoxycyclopropyl)methyl)amino)pyrimidin-4-yl)-1′,2′-dihydrospiro[cyclopropane-1,3′-pyrrolo[3,2-c]pyridin]-6′-yl)acetamide trifluoroacetate]			≤ 10 nM	10 to 100 nM
CC(=O)Nc1cc2c(cn1)C1(CC1)CN2c1cc(-c2cnn(CC(F)(F)F)c2)nc(C(C)(F)F)n1 [Example 392, N-(1′-(2-(1,1-difluoroethyl)-6-(1-(2,2,2-trifluoroethyl)-1H-pyrazol-4-yl)pyrimidin-4-yl)-1′,2′-dihydrospiro[cyclopropane-1,3′-pyrrolo[3,2-c]pyridin]-6′-yl)acetamide]	≤ 10 nM	≤ 10 nM		
CC(=O)Nc1cc2c(cn1)C1(CC1)CN2c1cc(C)cc(OC2CCC2)n1 [Example 340, N-(1′-(6-cyclobutoxy-4-methylpyridin-2-yl)-1′,2′-dihydrospiro[cyclopropane-1,3′-pyrrolo[3,2-c]pyridin]-6′-yl)acetamide trifluroacetate]			10 to 100 nM	≥ 1000 nM
CC(=O)Nc1cc2c(cn1)C1(CC1)CN2c1cc(-c2cnn(CC3CC3)c2)nc(C(C)(F)F)n1 [Example 389, N-(1′-(6-(1-(cyclopropylmethyl)-1H-pyrazol-4-yl)-2-(1,1-difluoroethyl)pyrimidin-4-yl)-1′,2′-dihydrospiro[cyclopropane-1,3′-pyrrolo[3,2-c]pyridin]-6′-yl)acetamide]	≤ 10 nM	≤ 10 nM		

Source: patent US20260258032A1, “TYROSINE KINASE 2 INHIBITORS AND USES THEREOF” (BIOGEN MA INC., priority 2022, published 2026)
